Reference: the NIST ThermoML archive (doi:10.1016/j.jct.2018.11.005)

Details: Liquid; for mass density: Vibrating tube method; for speed of sound: Frequency=5 MHz, Single path-length method

CCC(=O)[O-].CC[NH2+]CCO [N-ethyl-2-hydroxyethylammonium propionate]
Details	mass density [kg/m3]	speed of sound [m/s]
298.14 K, 15000 kPa	1058.3	–
298.14 K, 30000 kPa	1063.5	–
298.15 K, 10000 kPa	1057	–
298.15 K, 25000 kPa	1061.8	–
298.15 K, 35000 kPa	1064.6	–
298.16 K, 100 kPa	1051.9	–
298.16 K, 20000 kPa	1059.9	–
303.08 K, 35000 kPa	1060.7	–
303.12 K, 30000 kPa	1059.2	–
303.14 K, 20000 kPa	1055.6	–
303.14 K, 25000 kPa	1057.4	–
303.15 K, 100 kPa	–	1566.6
303.15 K, 1000 kPa	–	1570.6
303.15 K, 2000 kPa	–	1574.6
303.15 K, 3000 kPa	–	1578.7
303.15 K, 4000 kPa	–	1582.8
303.15 K, 5000 kPa	–	1586.9
303.15 K, 6000 kPa	–	1589.6
303.15 K, 7000 kPa	–	1592.4
303.15 K, 8000 kPa	–	1595.1
303.15 K, 9000 kPa	–	1599.3
303.15 K, 10000 kPa	1052.1	1603.5
303.15 K, 11000 kPa	–	1607.7
303.15 K, 12000 kPa	–	1611.9
303.15 K, 13000 kPa	–	1616.1
303.15 K, 14000 kPa	–	1620.3
303.15 K, 15000 kPa	1053.4	1623.2
303.15 K, 16000 kPa	–	1627.4
303.15 K, 17000 kPa	–	1631.7
303.15 K, 18000 kPa	–	1634.6
303.15 K, 19000 kPa	–	1637.5
303.15 K, 20000 kPa	–	1640.4
303.16 K, 100 kPa	1046.7	–
313.07 K, 25000 kPa	1047.8	–
313.07 K, 30000 kPa	1049.6	–
313.07 K, 35000 kPa	1051.4	–
313.09 K, 10000 kPa	1041.8	–
313.09 K, 20000 kPa	1045.6	–
313.11 K, 15000 kPa	1043.2	–
313.14 K, 100 kPa	1035.6	–
313.15 K, 100 kPa	–	1535.6
313.15 K, 1000 kPa	–	1539.4
313.15 K, 2000 kPa	–	1543.3
313.15 K, 3000 kPa	–	1547.2
313.15 K, 4000 kPa	–	1552.4
313.15 K, 5000 kPa	–	1555
313.15 K, 6000 kPa	–	1560.3
313.15 K, 7000 kPa	–	1564.2
313.15 K, 8000 kPa	–	1568.2
313.15 K, 9000 kPa	–	1572.2
313.15 K, 10000 kPa	–	1576.2
313.15 K, 11000 kPa	–	1578.9
313.15 K, 12000 kPa	–	1583
313.15 K, 13000 kPa	–	1587.1
313.15 K, 14000 kPa	–	1591.1
313.15 K, 15000 kPa	–	1595.3
313.15 K, 16000 kPa	–	1599.4
313.15 K, 17000 kPa	–	1603.5
313.15 K, 18000 kPa	–	1607.7
313.15 K, 19000 kPa	–	1610.5
313.15 K, 20000 kPa	–	1614.7
323.15 K, 100 kPa	1024.4	1504.9
323.15 K, 1000 kPa	–	1508.6
323.15 K, 2000 kPa	–	1512.4
323.15 K, 3000 kPa	–	1517.3
323.15 K, 4000 kPa	–	1522.4
323.15 K, 5000 kPa	–	1527.4
323.15 K, 6000 kPa	–	1531.2
323.15 K, 7000 kPa	–	1535
323.15 K, 8000 kPa	–	1538.9
323.15 K, 9000 kPa	–	1542.8
323.15 K, 10000 kPa	–	1546.6
323.15 K, 11000 kPa	–	1550.5
323.15 K, 12000 kPa	–	1555.7
323.15 K, 13000 kPa	–	1559.7
323.15 K, 14000 kPa	–	1563.6
323.15 K, 15000 kPa	1032.6	1566.3
323.15 K, 16000 kPa	–	1570.3
323.15 K, 17000 kPa	–	1572.9
323.15 K, 18000 kPa	–	1575.6
323.15 K, 19000 kPa	–	1579.6
323.15 K, 20000 kPa	1035.2	1583.7
323.15 K, 25000 kPa	1037.2	–
323.15 K, 30000 kPa	1039.3	–
323.15 K, 35000 kPa	1041.5	–
323.16 K, 10000 kPa	1030.5	–
333.14 K, 10000 kPa	1018	–
333.15 K, 100 kPa	–	1485.5
333.15 K, 1000 kPa	–	1489.2
333.15 K, 2000 kPa	–	1494.2
333.15 K, 3000 kPa	–	1497.9
333.15 K, 4000 kPa	–	1500.5
333.15 K, 5000 kPa	–	1503
333.15 K, 6000 kPa	–	1508
333.15 K, 7000 kPa	–	1511.8
333.15 K, 8000 kPa	–	1514.4
333.15 K, 9000 kPa	–	1519.4
333.15 K, 10000 kPa	–	1523.2
333.15 K, 11000 kPa	–	1525.8
333.15 K, 12000 kPa	–	1530.9
333.15 K, 13000 kPa	–	1533.5
333.15 K, 14000 kPa	–	1536.1
333.15 K, 15000 kPa	1021	1540
333.15 K, 16000 kPa	–	1542.6
333.15 K, 17000 kPa	–	1546.5
333.15 K, 18000 kPa	–	1550.4
333.15 K, 19000 kPa	–	1553
333.15 K, 20000 kPa	–	1555.6
333.15 K, 30000 kPa	1028.8	–
333.15 K, 35000 kPa	1031.3	–
333.16 K, 100 kPa	1011.9	–
333.16 K, 20000 kPa	1023.7	–
333.16 K, 25000 kPa	1026.2	–
343.14 K, 15000 kPa	1008.7	–
343.14 K, 25000 kPa	1014.3	–
343.15 K, 100 kPa	–	1450.5
343.15 K, 1000 kPa	–	1454.2
343.15 K, 2000 kPa	–	1458
343.15 K, 3000 kPa	–	1461.8
343.15 K, 4000 kPa	–	1466.7
343.15 K, 5000 kPa	–	1470.5
343.15 K, 6000 kPa	–	1474.3
343.15 K, 7000 kPa	–	1478.1
343.15 K, 8000 kPa	–	1481.9
343.15 K, 9000 kPa	–	1485.7
343.15 K, 10000 kPa	–	1489.5
343.15 K, 11000 kPa	–	1493.3
343.15 K, 12000 kPa	–	1497.2
343.15 K, 13000 kPa	–	1501
343.15 K, 14000 kPa	–	1504.8
343.15 K, 15000 kPa	–	1507.4
343.15 K, 16000 kPa	–	1511.2
343.15 K, 17000 kPa	–	1516.3
343.15 K, 18000 kPa	–	1520.1
343.15 K, 19000 kPa	–	1524
343.15 K, 20000 kPa	–	1526.6
343.17 K, 100 kPa	998.8	–
343.17 K, 10000 kPa	1004.6	–
343.17 K, 30000 kPa	1017.4	–
343.19 K, 35000 kPa	1020.1	–
343.21 K, 20000 kPa	1011.2	–
353.15 K, 100 kPa	–	1416
353.15 K, 1000 kPa	–	1419.9
353.15 K, 2000 kPa	–	1423.8
353.15 K, 3000 kPa	–	1428.9
353.15 K, 4000 kPa	–	1434
353.15 K, 5000 kPa	–	1438
353.15 K, 6000 kPa	–	1443.1
353.15 K, 7000 kPa	–	1447
353.15 K, 8000 kPa	–	1451
353.15 K, 9000 kPa	–	1456.1
353.15 K, 10000 kPa	–	1460
353.15 K, 11000 kPa	–	1465.1
353.15 K, 12000 kPa	–	1469
353.15 K, 13000 kPa	–	1471.8
353.15 K, 14000 kPa	–	1476.9
353.15 K, 15000 kPa	–	1480.8
353.15 K, 16000 kPa	–	1484.7
353.15 K, 17000 kPa	–	1488.6
353.15 K, 18000 kPa	–	1492.5
353.15 K, 19000 kPa	–	1496.4
353.15 K, 20000 kPa	–	1500.2
